# Measured values from PubChem BioAssay (NCI).
#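 Five concentrations, 48 hours, 96-well plates. GI50 = concentration required for 50% inhibition of growth. TGI denotes the concentration required for complete inhibition of growth.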
# Legend:
# Experiment in all cases: growth of human tumour cells (NCI), 48 h
# SNB-75 CNS = test system: SNB-75 CNS
# SK-MEL-2 melanoma = test system: SK-MEL-2 melanoma
# A498 renal = test system: A498 renal
# SR leukemia = test system: SR leukemia
# ACHN renal = test system: ACHN renal
# NCI-H23 lung = test system: NCI-H23 lung
# SK-MEL-28 melanoma = test system: SK-MEL-28 melanoma
# T-47D breast = test system: T-47D breast
# HOP-62 NSCLC = test system: HOP-62 NSCLC
# MDA-MB-435 = test system: MDA-MB-435
# UACC-62 melanoma = test system: UACC-62 melanoma
# OVCAR-5 ovarian = test system: OVCAR-5 ovarian
# UO-31 renal = test system: UO-31 renal
# IGROV1 ovarian = test system: IGROV1 ovarian
# SW-620 colon = test system: SW-620 colon
# TK-10 renal = test system: TK-10 renal
# DU-145 prostate = test system: DU-145 prostate
# M14 melanoma = test system: M14 melanoma
# HL-60(TB) leukemia = test system: HL-60(TB) leukemia
# RPMI-8226 leukemia = test system: RPMI-8226 leukemia
# OVCAR-8 ovarian = test system: OVCAR-8 ovarian
# SF-268 CNS = test system: SF-268 CNS
# HT29 colon = test system: HT29 colon
# SF-539 CNS = test system: SF-539 CNS
# MCF7 breast = test system: MCF7 breast
# SN12C renal = test system: SN12C renal
# HOP-92 NSCLC = test system: HOP-92 NSCLC
# KM12 colon = test system: KM12 colon
# OVCAR-4 ovarian = test system: OVCAR-4 ovarian
# SNB-19 CNS = test system: SNB-19 CNS
# COLO 205 colon = test system: COLO 205 colon
# UACC-257 melanoma = test system: UACC-257 melanoma
# MALME-3M melanoma = test system: MALME-3M melanoma
# MOLT-4 leukemia = test system: MOLT-4 leukemia
# SK-OV-3 ovarian = test system: SK-OV-3 ovarian
# RXF 393 renal = test system: RXF 393 renal
# MDA-MB-468 breast = test system: MDA-MB-468 breast
# HCC-2998 colon = test system: HCC-2998 colon
# A549 NSCLC = test system: A549 NSCLC
# LOX IMVI melanoma = test system: LOX IMVI melanoma
# MDA-MB-231 breast = test system: MDA-MB-231 breast
# NCI-H460 lung = test system: NCI-H460 lung
# PC-3 prostate = test system: PC-3 prostate
# 786-0 renal = test system: 786-0 renal
# CCRF-CEM leukemia = test system: CCRF-CEM leukemia
# HCT-116 colon = test system: HCT-116 colon
# HCT-15 colon = test system: HCT-15 colon
# K-562 leukemia = test system: K-562 leukemia
# NCI-H226 lung = test system: NCI-H226 lung
# EKVX NSCLC = test system: EKVX NSCLC
# U251 CNS = test system: U251 CNS
# SK-MEL-5 melanoma = test system: SK-MEL-5 melanoma
# HS 578T breast = test system: HS 578T breast
# SF-295 CNS = test system: SF-295 CNS
# NCI-H522 lung = test system: NCI-H522 lung
# CAKI-1 renal = test system: CAKI-1 renal
# OVCAR-3 ovarian = test system: OVCAR-3 ovarian
structure (smiles),measurement,setting,value
CN1CCCN(Cc2ccc(C(=O)Nc3cccc(Nc4ccc5cc(O)ccc5n4)c3)cc2C(F)(F)F)CC1,GI50,SNB-75 CNS,1170 nM
same,TGI,SNB-75 CNS,16.7 µM
same,GI50,SK-MEL-2 melanoma,17.2 µM
same,TGI,SK-MEL-2 melanoma,31.8 µM
same,GI50,A498 renal,17.6 µM
same,TGI,A498 renal,32 µM
same,GI50,SR leukemia,1890 nM
same,TGI,SR leukemia,5.3 µM
same,GI50,ACHN renal,19.7 µM
same,TGI,ACHN renal,38.4 µM
same,GI50,NCI-H23 lung,16.8 µM
same,TGI,NCI-H23 lung,32.1 µM
same,GI50,SK-MEL-28 melanoma,13.9 µM
same,TGI,SK-MEL-28 melanoma,29 µM
same,GI50,T-47D breast,15.8 µM
same,TGI,T-47D breast,33.3 µM
same,GI50,HOP-62 NSCLC,17.8 µM
same,TGI,HOP-62 NSCLC,31.8 µM
same,GI50,MDA-MB-435,10.4 µM
same,TGI,MDA-MB-435,22.1 µM
same,GI50,UACC-62 melanoma,15.9 µM
same,TGI,UACC-62 melanoma,30 µM
same,GI50,OVCAR-5 ovarian,15.3 µM
same,TGI,OVCAR-5 ovarian,31 µM
same,GI50,UO-31 renal,15.2 µM
same,TGI,UO-31 renal,29.7 µM
same,GI50,IGROV1 ovarian,17.2 µM
same,TGI,IGROV1 ovarian,32 µM
same,GI50,SW-620 colon,14.5 µM
same,TGI,SW-620 colon,28.9 µM
same,GI50,TK-10 renal,18.5 µM
same,TGI,TK-10 renal,32.8 µM
same,GI50,DU-145 prostate,16.9 µM
same,TGI,DU-145 prostate,30.6 µM
same,GI50,M14 melanoma,12.7 µM
same,TGI,M14 melanoma,27.8 µM
same,GI50,HL-60(TB) leukemia,11.9 µM
same,TGI,HL-60(TB) leukemia,31.8 µM
same,GI50,RPMI-8226 leukemia,11.4 µM
same,TGI,RPMI-8226 leukemia,35.9 µM
same,GI50,OVCAR-8 ovarian,18.9 µM
same,TGI,OVCAR-8 ovarian,37.2 µM
same,GI50,SF-268 CNS,17.3 µM
same,TGI,SF-268 CNS,36.1 µM
same,GI50,HT29 colon,13.3 µM
same,TGI,HT29 colon,28.8 µM
same,GI50,SF-539 CNS,11.3 µM
same,TGI,SF-539 CNS,24 µM
same,GI50,MCF7 breast,9.83 µM
same,TGI,MCF7 breast,24.7 µM
same,GI50,SN12C renal,17.3 µM
same,TGI,SN12C renal,31.7 µM
same,GI50,HOP-92 NSCLC,10.4 µM
same,TGI,HOP-92 NSCLC,23.3 µM
same,GI50,KM12 colon,14.1 µM
same,TGI,KM12 colon,28.1 µM
same,GI50,OVCAR-4 ovarian,15 µM
same,TGI,OVCAR-4 ovarian,30 µM
same,GI50,SNB-19 CNS,17 µM
same,TGI,SNB-19 CNS,31.7 µM
same,GI50,COLO 205 colon,18.5 µM
same,TGI,COLO 205 colon,33.3 µM
same,GI50,UACC-257 melanoma,14.7 µM
same,TGI,UACC-257 melanoma,29.1 µM
same,GI50,MALME-3M melanoma,12.6 µM
same,TGI,MALME-3M melanoma,25.6 µM
same,GI50,MOLT-4 leukemia,2050 nM
same,TGI,MOLT-4 leukemia,14.5 µM
same,GI50,SK-OV-3 ovarian,17.6 µM
same,TGI,SK-OV-3 ovarian,32 µM
same,GI50,RXF 393 renal,12.5 µM
same,TGI,RXF 393 renal,26.1 µM
same,GI50,MDA-MB-468 breast,8.88 µM
same,TGI,MDA-MB-468 breast,21.6 µM
same,GI50,HCC-2998 colon,16.5 µM
same,TGI,HCC-2998 colon,30.5 µM
same,GI50,A549 NSCLC,16.2 µM
same,TGI,A549 NSCLC,33.1 µM
same,GI50,LOX IMVI melanoma,12.1 µM
same,TGI,LOX IMVI melanoma,25 µM
same,GI50,MDA-MB-231 breast,13.9 µM
same,TGI,MDA-MB-231 breast,27.5 µM
same,GI50,NCI-H460 lung,18 µM
same,TGI,NCI-H460 lung,36.7 µM
same,GI50,PC-3 prostate,13.1 µM
same,TGI,PC-3 prostate,28.5 µM
same,GI50,786-0 renal,16 µM
same,TGI,786-0 renal,30.1 µM
same,GI50,CCRF-CEM leukemia,4.94 µM
same,TGI,CCRF-CEM leukemia,25.7 µM
same,GI50,HCT-116 colon,6.51 µM
same,TGI,HCT-116 colon,22.1 µM
same,GI50,HCT-15 colon,16.4 µM
same,TGI,HCT-15 colon,33.9 µM
same,GI50,K-562 leukemia,1180 nM
same,TGI,K-562 leukemia,4.54 µM
same,GI50,NCI-H226 lung,13.8 µM
same,TGI,NCI-H226 lung,28.9 µM
same,GI50,EKVX NSCLC,16 µM
same,TGI,EKVX NSCLC,31.3 µM
same,GI50,U251 CNS,14.8 µM
same,TGI,U251 CNS,30.6 µM
same,GI50,SK-MEL-5 melanoma,16.1 µM
same,TGI,SK-MEL-5 melanoma,29.6 µM
same,GI50,HS 578T breast,14.8 µM
same,TGI,HS 578T breast,50.2 µM
same,GI50,SF-295 CNS,17.3 µM
same,TGI,SF-295 CNS,33.4 µM
same,GI50,NCI-H522 lung,17 µM
same,TGI,NCI-H522 lung,32 µM
same,GI50,CAKI-1 renal,14.1 µM
same,TGI,CAKI-1 renal,27.8 µM
same,GI50,OVCAR-3 ovarian,16.3 µM
same,TGI,OVCAR-3 ovarian,29.9 µM
